Data on two compounds can be found in US7749709B2, “SOCS-1 gene methylation in cancer” (The Johns Hopkins University School of Medicine, priority 2001, dated 2010).

“Also recorded” adds a separate entry of the source. Where two headings read alike, the source gives them in different places.

One data set has as its system SOCS-1 gene expression. As to the kind of experiment: Semi-quantitative RT-PCR of SOCS-1 expression in MM cell lines. In kind it is cell-based, human. The note with it: 1 μM for 96 hr. As for the experimental part: (§1) For gene expression studies, U266 and XG1 cells were incubated in complete culture medium with a final concentration of 1.0 μM 5-azacytidine (Sigma). After 4 days, drug-treated and untreated cells were harvested and subjected to RNA extraction. In order to assess the sensitivity to AG490, cell lines K562, U266 and XG1 were incubated with or without a final concentration of 50 μM AG490 for 4 days prior to analysis. For STAT3 phosphorylation analysis, cell lines U266 and XG1 were initially starved for 16 hr in culture medium supplemented with only 1% FCS and no cytokine. Cells were then washed in cold PBS and resuspended in their appropriate complete medium with or without 50 μM AG490 and samples were harvested for protein analysis after 1 hr and 24 hr.
Total RNA was isolated using a commercially available kit (Qiagen) according to the manufacturer's instructions. Approximately 3 μg RNA per sample were reverse transcribed with SuperScript™ reverse transcriptase (Invitrogen). For PCR, 1 μl of the cDNA preparation was amplified using the following SOCS-1 primers: […]
Reactions were hot-started at 95° C. for 5 min and held at 80° C. before addition of 1.25 U of Taq polymerase (Invitrogen Corp.). […]

Data set [1] has as its system patients with AML and myelodysplastic syndrome. Conditions: cited from earlier work.
In a further data set the test system is KG1a. As to the kind of experiment: Flow cytometric analysis of apoptosis in AML cell line. In kind it is cell-based, human. Conditions: 50 μM AG490, 96 hr; SOCS-1 CpG island methylated. As for the experimental part:
(§2) HL60 cells were obtained from the American Type Culture Collection and KG1a cells from the German Collection of Microorganisms and Cell Cultures. Both cell lines were routinely cultured in IMDM (Invitrogen Corp.) with 20% FCS (Gemini Bio-Products). In order to assess the sensitivity to AG490, HL60 and KG1a cells were incubated with or without a final concentration of 50 μM AG490 (Sigma) for 96 hr prior to analysis.
(§3) The percentage of apoptotic cells was determined by annexin V-binding and counterstaining with propidium iodide (PI), and fluorescence analysis was performed as described in Example 2.

In the next data set the test system is HL60. The data set is described as above. The note with it: 50 μM AG490, 96 hr; SOCS-1 not methylated. In kind it is cell-based, human. The protocol:
as §2, §3

The next data set has as its system XG1 cells. In words: Flow cytometric analysis of apoptosis (annexin V binding, PI counterstaining). It is filed as cell-based, human. Conditions: 50 μM AG490, 96 hr; SOCS-1 hypermethylated. The protocol:
as §1
(§4) Apoptosis was assessed by annexin V binding and counterstaining with propidium iodide (PI) using a commercially available kit (Pharmingen) according to the manufacturer's instructions. Fluorescence analysis was performed on a BD LSR flow cytometer (Becton Dickinson).

The next data set concerns K562 cells. Described as above. Conditions: 50 μM AG490, 96 hr; no SOCS-1 methylation. It is filed as cell-based, human. The protocol:
as §1, §4

In another data set the test system is U266 cells. The data set is described as above. In kind it is cell-based, human. The note with it: 50 μM AG490, 96 hr; SOCS-1 hypermethylated. As for the experimental part:
as §1, §4

The subject of data set [2] is STAT3. As to the kind of experiment: Western blot analysis of STAT3 phosphorylation in MM cell lines. Conditions: 50 μM AG490, 1 hr and 24 hr. It is filed as cell-based, human. As for the experimental part: as §1
Cell lysis and western blot analysis for STAT3 phosphorylation were performed as described in Example 1 (see, also, Yoshikawa et al., supra, 2001).

The next data set has as its system myeloma cells. Conditions: cited from earlier work.
Data set [3] has as its system B cell leukemia cells, in which JAK2 was constitutively activated. Conditions: cited from earlier work.
Data set [4] deals with STAT3. The note with it: MM cell line XG2; cited from earlier work.
The test system of data set [5] is normal haematopoietic progenitor cells. Conditions: at concentrations similar to those used in the present studies; cited from earlier work.
A further data set has as its system leukemic Sezary cells. Conditions: cited from earlier work.
Another data set has as its system ALL. The note with it: cited from earlier work.
The test system of a further data set is STAT5. In words: Western blot analysis of STAT tyrosine phosphorylation in SOCS-1 methylated leukemia cells. In kind it is cell-based, human. The note with it: cell line with SOCS-1 methylation, following treatment with AG490. The protocol:
(§5) Western blot analysis was performed as described in Example 1. Blots were stained using anti-phospho-STAT1, anti-phospho-STAT3 or anti-phospho-STAT5 antibody (New England Biolabs) to detect tyrosine phosphorylation of STAT protein. After removing the antibody, the blot was analyzed using anti-STAT1, anti-STAT3 or anti-STAT5 antibody, respectively (BD Transduction Laboratories).

The subject of data set [6] is STAT3. Described as above. It is filed as cell-based, human. The note with it: cell line with SOCS-1 methylation, following treatment with AG490. The protocol:
as §5

In the next data set the test system is STAT1. Described as above. In kind it is cell-based, human. Conditions: cell line with SOCS-1 methylation, following treatment with AG490. As for the experimental part:
as §5

In data set [7] the test system is STAT3. As to the kind of experiment: Western blot analysis of STAT3 tyrosine phosphorylation in HCC cell lines treated with AG490. It is filed as cell-based, human. Conditions: 25 μM AG490 for 3 hr or 24 hr. As for the experimental part:
Cells at approximately 70% confluence were harvested and lysed on ice in a buffer containing 20 mM Tris (pH 8.0), 1% NONIDET P-40 detergent, 0.1% SDS, 150 mM NaCl, 50 mM NaF, 1 mM Na3VO4, 10 μg/ml leupeptin, 10 μg/ml aprotinin, 1 μg/ml pepstatin, and 1 mM phenylmethylsulfonyl fluoride. Following incubation for 30 min on ice, the lysates were cleared of debris by centrifugation at 15,000×g for 30 min. Eight hundred μg of protein lysates were incubated with 5 μg anti-JAK2 antibody (Upstate Biotechnology; Waltham Mass.) for 1 hr on ice. Thirty μl protein A+G (Oncogene Research Products; Boston Mass.) was added to the lysates and incubated for 1 hr at 4° C. with rotation.
Immune complexes were recovered by centrifugation, washed 5 times with the lysis buffer, then boiled for 5 min in SDS-PAGE sample buffer. The samples were resolved by SDS-PAGE, and electroblotted onto a nitrocellulose membrane. The blot was blocked with 5% skim milk in PBS for 1 hr at room temperature (RT), then incubated with 1 μg/ml of anti-phosphotyrosine antibody (4G10; Upstate biotechnology) over night at 4° C.
After several washes, a 1:5000 dilution of anti-mouse horseradish peroxidase-conjugated secondary antibody (Amersham Pharmacia Biotech) was added and incubated for 1 hr at RT. After several washes, the immunoreactive bands were visualized by an enhanced chemiluminescence substrate (Amersham Pharmacia Biotech) and exposed to HYPERFILM film (Amersham Pharmacia Biotech). The blot was stripped with a buffer composed of 62.5 mM Tris (pH 6.8), 2% SDS and 100 mM θ-mercaptoethanol at 50° C. for 30 min, washed, blocked with 5% milk in PBS, then re-probed with the anti-JAK2 antibody (Upstate Biotechnology).
To analyze inhibition of STAT3 by AG490, cells were treated with 25 μM AG490 for 3 hr or 24 hr. Eighty μg total protein samples from drug treated and untreated cells were separated by SDS-PAGE, and analyzed by western blot analysis. Anti-phospho-STAT3 antibody (New England Biolabs) was used to detect tyrosine phosphorylation of STAT3 according to the conditions recommended by the manufacturer. […]

Data set [8] relates to HCC cells exhibiting methylation silenced SOCS-1 gene expression. In words: Colony formation assay with AG490. It is filed as cell-based, human. Conditions: 5 μM AG490 for 3 weeks. The protocol: For AG490 treatment, 1×10^4 cells were plated in 100 mm tissue culture dishes, and grown in complete medium in the absence or presence of 5 μM AG490 for 3 weeks. In some experiments, cells were treated with 25 μM AG490 for 3 hr or 24 hr.

A further data set deals with normal liver cells. As to the kind of experiment: Effect of AG490 on normal liver cells. It is filed as cell-based.

As for `Nc1ncn([C@H]2C[C@H](O)[C@@H](CO)O2)c(=O)n1` [5-aza-2′-deoxycytidine], the SOCS-1 gene expression result with SOCS-1 gene expression (U266 cells) and in the data set on SOCS-1 gene expression (XG1 cells) was “reactivation of SOCS-1 gene expression” throughout. The clinical efficacy entry in [1] is “clinically effective”.
Regarding `N#C/C(=C/c1ccc(O)c(O)c1)C(=O)NCc1ccccc1` [AG490], the apoptosis induction entry in the data set with KG1a was “induced apoptosis”; in the data set with HL60, “no effect; also recorded: only weak induction of apoptosis”; in the data set with XG1 cells, “induced apoptosis”; with K562 cells it was “only a small effect”; with U266 cells, “induced apoptosis”; in the data set with myeloma cells, “induces apoptosis”. Besides, the apoptosis induction entry in the data set on leukemic Sezary cells is “induces apoptosis”. Moreover, the STAT3 phosphorylation entry is given as “inhibited STAT3 phosphorylation” in the data set with STAT3 [2] (U266 cells); “only minor effects” in the data set on STAT3 [2] (XG1 cells); “inhibition of STAT3 phosphorylation” in the data set on STAT3 [4]; “time dependent reduction in STAT3 phosphorylation” with STAT3 [7] (HuH-1 cells (SOCS-1 inactivated, JAK2 activated)); “time dependent reduction in STAT3 phosphorylation” in the data set with STAT3 [7] (SNU-387 cells (SOCS-1 inactivated, JAK2 activated)); “but not in the SOCS-1 expressing SNU-182 cells” in the data set on STAT3 [7] (SOCS-1 expressing SNU-182 cells). For the same compound, the “growth of B cell leukemia cells” value in data set [3] is “suppress growth”. Besides, the “growth of normal haematopoietic progenitor cells” value in [5] is given as “does not suppress the growth”. For the same compound, the “effectiveness in the treatment of ALL” value with ALL was “effectiveness”. Further, the “tyrosine phosphorylation of STAT5” value in the data set with STAT5 was “no change”. In addition, the “tyrosine phosphorylation of STAT3” value in the data set with STAT3 [6] is on record as “decreased”. In addition, the “tyrosine phosphorylation of STAT1” value with STAT1 is on record as “decreased”. Besides, in data set [8], the “growth suppression (number of colonies)” value is given as “effectively suppressed the growth”. In addition, the “effect on normal liver cells” value with normal liver cells is listed as “no effect”.
